Structures can show the parent of a compound that is named as a salt. *1 amine or outer side, *2 acyl side, *3 side chain or, on linkers, in order; H or OH if unused. Where a SMILES comes first, the peptide text is derived from it. [ ]: non-standard residue; d: D form. The star is where a group is joined. ACHPA = O=C(C[C@H](O)[C@H](CC1CCCCC1)N[*:1])[*:2]; Carboxymethyl = O=C(O)C*; X1 = O=C(C*)OCc1ccccc1; Boc = CC(C)(C)OC(=O)*
molecular target: HIV protease (Human immunodeficiency virus type 1 group M subtype B, UniProt P03366); experiment: biochemical
Description: Recombinant HIV Protease HPLC Assay:
The enzyme was stored as 10 μL aliquots at -70° C. The aliquots were diluted to 1/10th of the original concentration with buffer prior to use (enzyme working solution).
The substrate was made into 10 mM stock in DMSO and stored at -20° C. Prior to use, the stock was diluted with buffer to give a 400 μM solution substrate working solution.
Buffer: 2-(4-Morpholino)ethanesulfonic acid (50 mM), NaCl (25 mM) and EDTA (5 mM) was dissolved in distilled H2 O (90 mL) and the solution was adjusted to pH6 with concentrated aqueous NaOH. The latter solution was diluted to 100 mL with H2 O to give the buffer.
(2) The assay mixture was prepared by mixing 10 μL of the substrate working solution, 0.5 μL of the solution of the test compound in DMSO from step 1, and 10 μL of the enzyme working solution. (3) The assay mixture was incubated at 37° C. for 1 h. (4) The reaction was quenched by adding 100 μL of 2% aqueous TFA. […] Elution was monitored at 210 nm. (6) A control which was the assay mixture without the test compound, was subjected simultaneously to steps 3 to 5.
Inhibition Studies: Cleavage products and remaining parent substrate were quantified by either peak height or by integration of the appropriate HPLC peaks. Substrate conversion was calculated using the following relationship: [formula] Enzyme inhibition of the test compound was calculated as follows: [formula]
The percent inhibition of the enzyme was determined for a minimum of three different concentrations of the test compound. Thereafter, the IC50 was determined graphically by plotting the percent inhibition of the substrate against the concentration of the test compound.

SMILES | IC50 [µM]
CC(C)C[C@H](NC(=O)C[C@H](O)[C@H](CC1CCCCC1)NC(=O)[C@@H](NC(=O)[C@H](Cc1ccc(OCC(=O)OCc2ccccc2)cc1)NC(=O)OC(C)(C)C)C(C)C)C(=O)N[C@@H](Cc1ccccc1)C(N)=O [Example 1] | 0.07
CC(C)C[C@H](NC(=O)C[C@H](O)[C@H](CC1CCCCC1)NC(=O)[C@@H](NC(=O)[C@@H](N)Cc1ccc(OCC(=O)OCc2ccccc2)cc1)C(C)C)C(=O)N[C@@H](Cc1ccccc1)C(N)=O [Example 2, H-Tyr(O-AcOBzl)-Val-ACHPA-Leu-Phe-NH2.HCl] (H-Y(X1)V[ACHPA]LF-NH2) | 0.005
CC(C)C[C@H](NC(=O)C[C@H](O)[C@H](CC1CCCCC1)NC(=O)[C@@H](NC(=O)[C@H](Cc1ccc(OCC(=O)O)cc1)NC(=O)OC(C)(C)C)C(C)C)C(=O)N[C@@H](Cc1ccccc1)C(N)=O [Example 3, Boc-Tyr(O-AcOH)-Val-ACHPA-Leu-Phe-NH2] (Boc-Y(Carboxymethyl)V[ACHPA]LF-NH2) | 0.052
CC(C)C[C@H](NC(=O)C[C@H](O)[C@H](CC1CCCCC1)NC(=O)[C@@H](NC(=O)[C@@H](N)Cc1ccc(OCC(=O)O)cc1)C(C)C)C(=O)N[C@@H](Cc1ccccc1)C(N)=O [Example 4, H-Tyr(O-AcOH)-Val-ACHPA-Leu-Phe-NH2.HCl] (H-Y(Carboxymethyl)V[ACHPA]LF-NH2) | 0.01
CC(C)C[C@H](NC(=O)C[C@H](O)[C@H](CC1CCCCC1)NC(=O)[C@H](Cc1ccccc1)NC(=O)[C@H](Cc1ccc(OCC(=O)O)cc1)NC(=O)OC(C)(C)C)C(=O)N[C@@H](Cc1ccccc1)C(N)=O [Example 5, Boc-Tyr(O-AcOH)-Phe-ACHPA-Leu-Phe-NH2] (Boc-Y(Carboxymethyl)F[ACHPA]LF-NH2) | 1

From patent publication US5126326A (Bio-Mega, Inc., priority 1989, dated 1992)
